Assay results as given in patent publication US20260273018A1, “PHARMACEUTICAL COMPOSITION CONTAINING SPECIFIC SELF-ASSEMBLING PEPTIDE RADA16 FOR TREATING OR PREVENTING LOWER GASTROINTESTINAL DISEASES SUCH AS INFLAMMATORY BOWEL DISEASE” (3-D Matrix, Ltd., priority 2021, published 2026).

How the values were obtained:
[1] = tested on: DSS-induced ulcerative colitis model, large intestine tissue; test: Histopathological evaluation of colon HE-stained specimens (Histological Colitis Score); type: in vivo, Mouse; conditions: compared to the negative control; scores only in the FIGURE
Protocol: A histopathological evaluation of the colon HE-stained specimens prepared in example 1 was performed. • 1. […] Histopathological evaluation • Blind evaluation of a pathology score was carried out in accordance with the scoring below for two pieces of the upper and lower parts of the large intestine for each specimen (36 pieces in total). Each score of (1), (2), (3) is multiplied by (4), and the total of these is defined as a “Histological Colitis Score.”^1) It should be noted that the lower part of the large intestine is located on the […], and • the upper part of the large intestine is located to the right thereof.
• 1) Dieleman LA., et al. Chronic experimental colitis induced by dextran sulfate sodium (DSS) is characterized by Th1 and Th2 cytokines. Clin Exp Immunol. 1998.

[2] = tested on: DSS-induced ulcerative colitis model; test: Transanal administration experiment on DSS-induced ulcerative colitis model mice (DAI, body weight, large intestine length, general condition); type: in vivo
Protocol: A mouse was made to drink an aqueous solution of 2.5 w/v % dextran sulfate sodium, and the efficacy of a specific peptide having the amino acid sequence indicated by SEQ ID NO 1 on the induced ulcerative colitis model is retrieved by Disease Activity Index. Similarly, Mucosta (registered trademark) and Selbex (registered trademark), which are therapeutic agents for duodenal ulcers, were administered alone or in combination with a peptide having the amino acid sequence indicated by SEQ ID NO 1, and Pentasa (registered trademark) and Rectabul (registered trademark), which are therapeutic agents for ulcerative colitis, were administered alone to compare and study the efficacy. Furthermore, the plasma and removed large intestine collected on the final day of the experiment were shipped to a test contractor. • Dextran sulfate sodium aqueous solution drink period (preparation of dextran sulfate sodium-induced ulcerative colitis model): • Nov. 16, 2019 to Nov. 25, 2019 • Administration period: Nov. 22, 2019 to Nov. 24, 2019 • Disease Activity Index (DAI: Evaluation of body weight, properties, and occult blood): • November 16, November 22, and Nov. 25, 2019 • Blood collected: Nov. 25, 2019 • Large intestine removed and length measured: • Nov. 25, 2019 • Experiment end date: Nov. 25, 2019
• Species: Mouse (SPF) • Strain: BALB/cAnNCrlCrlj • Source: Charles River Laboratories Japan (Atsugi Breeding Center) • Reason for selection of the test system: The mouse strain is widely used for toxicity and drug efficacy tests. • Sex and order (purchase) count: Male: 60 • Age at purchase: 9 weeks • Quarantine and habituation: Quarantine was carried out for six days from the date of animal purchase. During the quarantine period, the general condition was observed daily and body weight was measured on the 1st day (purchase date), 3rd day, and 7th day (quarantine end date). In addition, the habituation period was from the date of animal purchase to the day before the start of drinking the DSS aqueous solution, the general condition was also observed once a day after the quarantine period, and body weight was measured on a grouping day. • Age at the start of test substance administration: 11 weeks
• Administration method: Performed under anesthesia by inhalation of Japanese pharmacopeia isoflurane (Mylan Inc., hereinafter abbreviated as isoflurane). • If there is a clot of feces in the rectum, the animal was massaged, and the feces were removed as much as possible. • The administration solution was aspirated into a 1 mL polypropylene syringe cylinder (sterilized disposable product), inserted through the anus part using a mouse sonde (about 1 cm from the tip), and slowly administered transanally. […] Then, it was slowly pulled out and liquid that leaked from the anus part was wiped off. It should be noted that mixing was performed by lightly inverting by hand so that the test substance administration solution and the Rectabul administration solution would not have large bubbles as much as possible and so that the other comparative control substance administration solution would not foam up, and then each solution was aspirated into the syringe cylinder. • Amount of administration liquid: 0.7 mL • Reason for selection: The method of administration to mice is common and appropriate.
• Animal subjects: All test animals after grouping (excluding non-treatment group) • Model production period: Day 1-10 • Model production method: On the day that drinking of the DSS aqueous started (between 13:00 and 14:00), the water in the glass or polycarbonate water dispenser installed in the cage was changed to a DSS 2.5 w/v % aqueous solution, and the solution was freely ingested. […]

[3] = Day 10, transanal 0.7 mL/head on Days 7-9
[4] = observation period, considered due to progress of DSS colitis

Sequence: RADARADARADARADA
- histological score: suppression of intestinal tissue inflammation [1]: had an effect of suppressing intestinal tissue inflammation compared to the negative control
- average DAI score, Day 7 ([2]; Day 7 of DSS 2.5 w/v % drinking (first treatment day), group average, 0.7 mL/head transanal once a day on Days 7, 8, 9): 2.8
- cases scoring 1 "+" for fecal occult blood (visual) ([2]; Day 10): one case
- length of the large intestine, end part of the ileum to just before the rectum (average) [2, 3]: 45.52 mm
- length of the large intestine, end part of the ileum to the anus part (average) [2, 3]: 75.71 mm
- average DAI score, Day 10 ([2]; Day 10 of DSS drinking, after transanal 0.7 mL/head on Days 7, 8, 9, group average): 2.8
- death ([2]; found dead on Day 10, cause considered progression of DSS-induced ulcerative colitis): a death was observed
- general condition: anal bleeding (cases) ([2]; observation period): one case
- general condition: black stool (cases) ([2]; observation period): one case
- general condition: perianal hair stains (pale red) (cases) ([2]; observation period): one case
- general condition: piloerection (cases) ([2]; observation period): one case
- general condition: irregular respiration (cases) [2, 4]: one to three cases
- general condition: small amount of defecation (cases of 5 animals) [2, 4]: one to three cases
- DAI score on Day 10 compared to Day 7 ([2]; result in words, control group increased): did not increase compared to Day 7
- body weight loss on Day 10 compared to Day 7 ([2]; result in words, control group lost further weight): no further body weight loss was observed compared to Day 7
